Data reported in ChEMBL document CHEMBL1177670 (Bioorg Med Chem, 2010).
Activity calls are given as the source filed them. No cut-off for these calls is given here.

What was measured:
[1] = target: T1, D(2) dopamine receptor (Homo sapiens, UniProt P14416); test: biochemical
[2] = target: T2, D(3) dopamine receptor (Homo sapiens, UniProt P35462); test: biochemical
[3] = target: T3, D(4) dopamine receptor (Homo sapiens, UniProt P21917); test: biochemical
T3 sequence (P21917 whole entry): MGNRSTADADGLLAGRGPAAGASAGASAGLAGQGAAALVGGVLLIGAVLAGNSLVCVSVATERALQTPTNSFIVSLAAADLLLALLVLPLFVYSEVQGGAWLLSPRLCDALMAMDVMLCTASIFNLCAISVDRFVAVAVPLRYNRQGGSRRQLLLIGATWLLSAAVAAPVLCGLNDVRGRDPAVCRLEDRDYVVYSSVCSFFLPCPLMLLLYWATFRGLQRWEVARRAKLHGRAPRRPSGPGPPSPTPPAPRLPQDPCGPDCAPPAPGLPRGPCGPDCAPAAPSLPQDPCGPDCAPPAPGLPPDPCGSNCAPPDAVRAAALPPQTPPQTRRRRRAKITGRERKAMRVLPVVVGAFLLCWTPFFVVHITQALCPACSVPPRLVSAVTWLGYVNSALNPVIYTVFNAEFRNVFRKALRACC

[4] = target: T1, D(2) dopamine receptor; test: Antagonist at human dopamine D2 long receptor expressed in HEK293 cells assessed as inhibition of forskolin-induced adenylyl cyclase activity at 10 nM after 20 mins by spectrophotometric analysis in presence of quinpirole; format: functional, cell-based
[5] = target: T2, D(3) dopamine receptor
[6] = target: T3, D(4) dopamine receptor
[7] = target: T1, D(2) dopamine receptor
[8] = target: T4, Sigma non-opioid intracellular receptor 1 (Cavia porcellus, UniProt Q60492)
T4 sequence (Q60492 whole entry): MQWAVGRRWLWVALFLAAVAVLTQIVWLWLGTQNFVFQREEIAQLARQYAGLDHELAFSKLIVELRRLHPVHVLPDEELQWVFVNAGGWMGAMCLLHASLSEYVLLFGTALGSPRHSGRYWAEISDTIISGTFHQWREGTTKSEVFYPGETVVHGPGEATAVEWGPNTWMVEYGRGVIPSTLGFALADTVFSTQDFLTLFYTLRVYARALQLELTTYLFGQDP
Description: (§1) Displacement of [3H](+)-pentazocine from sigma 1 receptor in guinea pig brain homogenates after 1 hr by liquid scintillation counting

[9] = target: T4, Sigma non-opioid intracellular receptor 1; test: biochemical
Description: as §1

T2 sequence (P35462 whole entry): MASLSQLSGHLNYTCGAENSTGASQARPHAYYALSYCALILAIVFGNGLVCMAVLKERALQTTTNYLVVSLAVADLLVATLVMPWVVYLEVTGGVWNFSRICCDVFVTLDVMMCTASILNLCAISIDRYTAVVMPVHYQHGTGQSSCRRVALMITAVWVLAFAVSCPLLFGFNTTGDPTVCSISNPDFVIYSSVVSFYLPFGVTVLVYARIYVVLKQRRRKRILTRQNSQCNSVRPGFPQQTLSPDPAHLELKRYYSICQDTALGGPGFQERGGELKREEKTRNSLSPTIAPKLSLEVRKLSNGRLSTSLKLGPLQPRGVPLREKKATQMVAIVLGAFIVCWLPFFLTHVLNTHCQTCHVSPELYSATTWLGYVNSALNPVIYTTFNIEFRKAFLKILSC
T1 sequence (P14416 whole entry): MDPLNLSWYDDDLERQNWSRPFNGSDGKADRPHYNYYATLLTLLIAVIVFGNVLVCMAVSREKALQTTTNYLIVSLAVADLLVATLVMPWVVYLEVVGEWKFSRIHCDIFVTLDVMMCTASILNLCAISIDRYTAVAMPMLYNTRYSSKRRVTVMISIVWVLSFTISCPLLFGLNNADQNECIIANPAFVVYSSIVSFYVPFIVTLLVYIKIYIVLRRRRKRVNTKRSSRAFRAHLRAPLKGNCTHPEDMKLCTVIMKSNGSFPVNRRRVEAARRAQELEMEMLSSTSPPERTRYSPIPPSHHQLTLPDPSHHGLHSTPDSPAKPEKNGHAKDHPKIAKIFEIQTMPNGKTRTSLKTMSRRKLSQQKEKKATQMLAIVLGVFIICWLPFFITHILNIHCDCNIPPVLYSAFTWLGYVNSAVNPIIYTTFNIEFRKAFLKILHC

SMILES | Ki [1] [nM] | Ki [2] [nM] | Ki [3] [nM] | further results
OC1(c2ccc(Br)cc2)CCN(Cc2coc3ccccc23)CC1 | 6.6 | 10.9 |  | 
OC1(c2ccc(I)cc2)CCN(Cc2cc3ccccc3o2)CC1 |  | 49 | 245 | 
COc1ccc2[nH]cc(CN3CCC(O)(c4ccccc4)CC3)c2c1 | 1400 | 2930 | > 10000 | 
COc1cccc2[nH]cc(CN3CCC(O)(c4ccc(I)cc4)CC3)c12 |  | 122 |  | Activity [4]: Active
OC1(c2ccc(I)cc2)CCN(Cc2c[nH]c3ccccc23)CC1 | 3.8 |  |  | 
OC1(c2ccc(Cl)cc2)CCN(Cc2c[nH]c3ccccc23)CC1 |  |  |  | Ki [5]: 104 nM; Ki [6]: 449 nM
OC1(c2ccc(Br)cc2)CCN(Cc2c[nH]c3cccc(OCCF)c23)CC1 |  | 849 | 668 | 
O=C1N(Cc2cn(CCF)nn2)CN(c2ccccc2)C12CCN(Cc1coc3ccccc13)CC2 | 2 | 0.9 | 978 | 
OC1(c2ccc(Br)cc2)CCN(Cc2cc3ccccc3o2)CC1 |  |  | 254 | 
CSc1ccc(C2(O)CCN(Cc3c[nH]c4ncccc34)CC2)cc1 | 254 | 4940 | 937 | 
COc1cccc2[nH]cc(CN3CCC(O)(c4ccc(Cl)cc4)CC3)c12 |  |  |  | Ki [7]: 4.2 nM; Ki [5]: 250 nM; Ki [6]: > 2000 nM; Ki [8]: > 5000 nM
O=C1N(CCF)CN(c2ccccc2)C12CCN(Cc1coc3ccccc13)CC2 | 8 | 9.3 | 945 | 
COc1cccc2[nH]cc(CN3CCC(O)(c4ccc(Br)cc4)CC3)c12 |  |  |  | Ki [7]: 2.3 nM; Ki [5]: 190 nM; Ki [6]: 840 nM; Ki [8]: 2560 nM
OC1(c2ccc(Br)cc2)CCN(Cc2c[nH]c3ccccc23)CC1 |  |  |  | Ki [7]: 4.8 nM; Ki [5]: 110 nM; Ki [6]: 652 nM; Ki [8]: 12.1 nM
OC1(c2ccc(I)cc2)CCN(Cc2coc3ccccc23)CC1 | 2.4 |  |  | 
COc1ccc2[nH]cc(CN3CCC(O)(c4ccc(Cl)cc4)CC3)c2c1 |  |  |  | Ki [7]: 4.2 nM; Ki [5]: 204 nM; Ki [6]: > 3500 nM; Ki [8]: 242 nM
OC1(c2ccc(I)cc2)CCN(Cc2c[nH]c3ncccc23)CC1 | 61 | 1590 | 634 | 
CN1CN(c2ccccc2)C2(CCN(Cc3coc4ccccc34)CC2)C1=O | 7.1 | 2.1 | 492 | 
OC1(c2ccccc2)CCN(Cc2cc3ccccc3s2)CC1 | 46.8 | 142 |  | Ki [9]: 2.13 nM
OC1(c2ccc(Br)cc2)CCN(Cc2c[nH]c3ncccc23)CC1 | 212 | 2980 | 620 | 
COc1ccc2[nH]cc(CN3CCC(O)(c4ccc(I)cc4)CC3)c2c1 | 0.9 | 100 | 129 | Activity [4]: Active
OC1(c2ccc(Br)cc2)CCN(Cc2c[nH]c3ccc(OCCF)cc23)CC1 |  | 188 | 344 | 
COc1ccc2[nH]cc(CN3CCC(O)(c4ccc(Br)cc4)CC3)c2c1 |  |  |  | Ki [7]: 2.5 nM; Ki [6]: 700 nM; Ki [8]: 108 nM
